PubChem BioAssay (NCI)
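GI50 = concentration required for 50% inhibition of growth. TGI: total growth inhibition.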

Columns and labels:
Assay in all cases: NCI anticancer screen, dose series, 384-well format
[1] = tested on: A549 NSCLC
[2] = tested on: SF-295 CNS
[3] = tested on: MCF7 breast
[4] = tested on: SR leukemia
[5] = tested on: MOLT-4 leukemia
[6] = tested on: A498 renal
[7] = tested on: ACHN renal
[8] = tested on: K-562 leukemia
[9] = tested on: PC-3 prostate
[10] = tested on: SF-539 CNS
[11] = tested on: RXF 393 renal
[12] = tested on: NCI-H522 lung
[13] = tested on: MDA-MB-468 breast
[14] = tested on: UO-31 renal
[15] = tested on: SK-MEL-5 melanoma
[16] = tested on: OVCAR-8 ovarian
[17] = tested on: MDA-MB-435 melanoma
[18] = tested on: SW-620 colon
[19] = tested on: RPMI-8226 leukemia
[20] = tested on: 786-0 renal
[21] = tested on: T-47D breast
[22] = tested on: OVCAR-3 ovarian
[23] = tested on: HCC-2998 colon
[24] = tested on: HOP-62 NSCLC
[25] = tested on: BT-549 breast
[26] = tested on: SK-MEL-28 melanoma
[27] = tested on: HCT-15 colon
[28] = tested on: SK-OV-3 ovarian
[29] = tested on: HT29 colon
[30] = tested on: SNB-75 CNS
[31] = tested on: MALME-3M melanoma
[32] = tested on: DU-145 prostate
[33] = tested on: EKVX NSCLC
[34] = tested on: SF-268 CNS
[35] = tested on: NCI-H226 lung
[36] = tested on: LOX IMVI melanoma
[37] = tested on: IGROV1 ovarian
[38] = tested on: SN12C renal
[39] = tested on: COLO 205 colon
[40] = tested on: CAKI-1 renal
[41] = tested on: CCRF-CEM leukemia
[42] = tested on: HS 578T breast
[43] = tested on: NCI-H460 NSCLC
[44] = tested on: TK-10 renal
[45] = tested on: HOP-92 NSCLC
[46] = tested on: OVCAR-5 ovarian
[47] = tested on: UACC-62 melanoma
[48] = tested on: UACC-257 melanoma
[49] = tested on: OVCAR-4 ovarian
[50] = tested on: NCI-H23 lung
[51] = tested on: KM12 colon
[52] = tested on: M14 melanoma
[53] = tested on: SNB-19 CNS
[54] = tested on: HL-60(TB) leukemia
[55] = tested on: NCI/ADR-RES ovarian
[56] = tested on: MDA-MB-231 breast
[57] = tested on: NCI-H322M lung

C[C@H]1COCCN1c1nc(-c2cnc(N)cc2C(F)F)nc(N2CCOCC2)n1 was tested, and the GI50 [1] was 221 nM, the TGI [1] was 2750 nM and the GI50 [2] was 106 nM. The TGI [2] was 463 nM, the GI50 [3] was 45.3 nM and the TGI [3] was 3080 nM. It also gave a GI50 [4] of 125 nM, a TGI [4] of 370 nM and a GI50 [5] of 103 nM. It also gave a TGI [5] of 406 nM, a GI50 [6] of 49.3 nM and a TGI [6] of 447 nM. The GI50 [7] was 247 nM, the TGI [7] was 3830 nM and the GI50 [8] was 548 nM. The TGI [8] was greater than 100000 nM, the GI50 [9] was 166 nM and the TGI [9] was 10100 nM. The GI50 [10] was 323 nM, the TGI [10] was 5880 nM and the GI50 [11] was 315 nM. For the same molecule, the TGI [11] was 2880 nM, the GI50 [12] was 206 nM and the TGI [12] was 1630 nM. It also gave a GI50 [13] of 172 nM, a TGI [13] of 487 nM and a GI50 [14] of 321 nM. It also gave a TGI [14] greater than 100000 nM, a GI50 [15] of 143 nM and a TGI [15] of 417 nM. It also gave a GI50 [16] of 307 nM, a TGI [16] greater than 100000 nM and a GI50 [17] of 275 nM. It also gave a TGI [17] of 2520 nM, a GI50 [18] of 554 nM and a TGI [18] greater than 100000 nM. For the same molecule, the GI50 [19] was 30.7 nM, the TGI [19] was 155 nM and the GI50 [20] was 385 nM. It also gave a TGI [20] of 6130 nM, a GI50 [21] of 19.7 nM and a TGI [21] of 106 nM. It also gave a GI50 [22] of 270 nM, a TGI [22] of 2930 nM and a GI50 [23] of 423 nM. It also gave a TGI [23] of 12400 nM, a GI50 [24] of 261 nM and a TGI [24] of 4410 nM. It also gave a GI50 [25] of 175 nM, a TGI [25] of 758 nM and a GI50 [26] of 146 nM. For the same molecule, the TGI [26] was 890 nM, the GI50 [27] was 181 nM and the TGI [27] was 30900 nM. It also gave a GI50 [28] of 129 nM, a TGI [28] of 441 nM and a GI50 [29] of 263 nM. It also gave a TGI [29] of 55300 nM, a GI50 [30] of 117 nM and a TGI [30] of 810 nM. For the same molecule, the GI50 [31] was 50.7 nM, the TGI [31] was 309 nM and the GI50 [32] was 308 nM. It also gave a TGI [32] greater than 100000 nM, a GI50 [33] of 189 nM and a TGI [33] of 780 nM. It also gave a GI50 [34] of 311 nM, a TGI [34] of 36100 nM and a GI50 [35] of 159 nM. The TGI [35] was 649 nM, the GI50 [36] was 242 nM and the TGI [36] was 1170 nM. For the same molecule, the GI50 [37] was 53.8 nM, the TGI [37] was 265 nM and the GI50 [38] was 138 nM. It also gave a TGI [38] of 772 nM, a GI50 [39] of 201 nM and a TGI [39] of 11800 nM. The GI50 [40] was 196 nM, the TGI [40] was 3960 nM and the GI50 [41] was 224 nM. The TGI [41] was 1680 nM, the GI50 [42] was 52.8 nM and the TGI [42] was 273 nM. For the same molecule, the GI50 [43] was 68.7 nM, the TGI [43] was greater than 100000 nM and the GI50 [44] was 254 nM. For the same molecule, the TGI [44] was 2010 nM, the GI50 [45] was 102 nM and the TGI [45] was 462 nM. It also gave a GI50 [46] of 163 nM, a TGI [46] of 1170 nM and a GI50 [47] of 227 nM. It also gave a TGI [47] of 1490 nM, a GI50 [48] of 389 nM and a TGI [48] of 3210 nM. For the same molecule, the GI50 [49] was 115 nM, the TGI [49] was 585 nM and the GI50 [50] was 184 nM. For the same molecule, the TGI [50] was 30700 nM, the GI50 [51] was 294 nM and the TGI [51] was 12000 nM. For the same molecule, the GI50 [52] was 191 nM, the TGI [52] was 27400 nM and the GI50 [53] was 2330 nM. The TGI [53] was greater than 100000 nM, the GI50 [54] was 289 nM and the TGI [54] was 2820 nM. For the same molecule, the GI50 [55] was 399 nM, the TGI [55] was greater than 100000 nM and the GI50 [56] was 248 nM. It also gave a TGI [56] greater than 100000 nM, a GI50 [57] of 203 nM and a TGI [57] of 10900 nM.
